Assays:
[1] = xn = mol fraction of the nth substance listed; conditions: 101.3 kPa, Liquid; for viscosity: Capillary tube (Ostwald / Ubbelohde) method; for speed of sound: Pulse-echo method; for mass density: Vibrating tube method
[2] = excess molar enthalpy (molar enthalpy of mixing); xn = mol fraction of the nth substance listed; conditions: 101.3 kPa, Liquid, Flow calorimetry

OCC(F)(F)F [2,2,2-trifluoroethanol] + C1CCOC1
Conditions	excess molar enthalpy [kcal/mol]	mass density [kg/m3]	speed of sound [m/s]	viscosity [mPa·s]
[1], 283.15 K, x2 = 0.1022	–	–	–	2.107
[1], 283.15 K, x2 = 0.1087	–	1336.89	897.7	–
[1], 283.15 K, x2 = 0.2018	–	–	–	1.578
[1], 283.15 K, x2 = 0.2084	–	1277.4	932.6	–
[1], 283.15 K, x2 = 0.299	–	1226.31	966.8	–
[1], 283.15 K, x2 = 0.3033	–	–	–	1.246
[1], 283.15 K, x2 = 0.4037	–	–	–	1.037
[1], 283.15 K, x2 = 0.4038	–	1171.02	1010.1	–
[1], 283.15 K, x2 = 0.4953	–	1125.37	1052.1	–
[1], 283.15 K, x2 = 0.5014	–	–	–	0.8927
[1], 283.15 K, x2 = 0.5967	–	1076.79	–	–
[1], 283.15 K, x2 = 0.6013	–	–	1104.4	–
[1], 283.15 K, x2 = 0.6036	–	–	–	0.7821
[1], 283.15 K, x2 = 0.7004	–	–	–	0.7023
[1], 283.15 K, x2 = 0.7048	–	1027.26	1161.1	–
[1], 283.15 K, x2 = 0.7958	–	–	1213.8	–
[1], 283.15 K, x2 = 0.8048	–	982.37	–	–
[1], 283.15 K, x2 = 0.8532	–	–	–	0.6208
[1], 283.15 K, x2 = 0.8868	–	946.79	–	–
[1], 283.15 K, x2 = 0.9033	–	–	–	0.5846
[1], 283.15 K, x2 = 0.9058	–	–	1283.2	–
[1], 283.15 K, x2 = 0.9657	–	913.1	1324.1	–
[1], 298.15 K, x2 = 0.0362	–	1358.26	–	–
[1], 298.15 K, x2 = 0.1022	–	–	–	1.467
[1], 298.15 K, x2 = 0.1041	–	1315.13	–	–
[1], 298.15 K, x2 = 0.1106	–	–	854.6	–
[1], 298.15 K, x2 = 0.2018	–	–	–	1.169
[1], 298.15 K, x2 = 0.2053	–	1255.19	–	–
[1], 298.15 K, x2 = 0.2095	–	–	885	–
[1], 298.15 K, x2 = 0.3019	–	–	917.9	–
[1], 298.15 K, x2 = 0.3031	–	1201.4	–	–
[1], 298.15 K, x2 = 0.3033	–	–	–	0.9632
[1], 298.15 K, x2 = 0.4018	–	1150.15	–	–
[1], 298.15 K, x2 = 0.4037	–	–	–	0.8286
[1], 298.15 K, x2 = 0.4065	–	–	959.4	–
[1], 298.15 K, x2 = 0.4986	–	1103.07	–	–
[1], 298.15 K, x2 = 0.5014	–	–	–	0.7228
[1], 298.15 K, x2 = 0.5076	–	–	1003.3	–
[1], 298.15 K, x2 = 0.5989	–	1055.77	–	–
[1], 298.15 K, x2 = 0.6036	–	–	–	0.6432
[1], 298.15 K, x2 = 0.6172	–	–	1055.8	–
[1], 298.15 K, x2 = 0.7004	–	–	–	0.5841
[1], 298.15 K, x2 = 0.7019	–	1009.19	–	–
[1], 298.15 K, x2 = 0.7123	–	–	1104.9	–
[1], 298.15 K, x2 = 0.7978	–	967.32	–	–
[1], 298.15 K, x2 = 0.8205	–	–	1164.5	–
[1], 298.15 K, x2 = 0.8532	–	–	–	0.5222
[1], 298.15 K, x2 = 0.899	–	924.33	–	–
[1], 298.15 K, x2 = 0.9033	–	–	–	0.4959
[1], 298.15 K, x2 = 0.9042	–	–	1216.3	–
[1], 313.15 K, x2 = 0.1022	–	–	–	1.057
[1], 313.15 K, x2 = 0.1024	–	1291.64	808.3	–
[1], 313.15 K, x2 = 0.1991	–	1234.96	834.3	–
[1], 313.15 K, x2 = 0.2018	–	–	–	0.8873
[1], 313.15 K, x2 = 0.3032	–	1178.51	868.4	–
[1], 313.15 K, x2 = 0.3033	–	–	–	0.7583
[1], 313.15 K, x2 = 0.3554	–	1151.61	886.4	–
[1], 313.15 K, x2 = 0.4037	–	–	–	0.6648
[1], 313.15 K, x2 = 0.4972	–	1082.56	942.6	–
[1], 313.15 K, x2 = 0.5014	–	–	–	0.5936
[1], 313.15 K, x2 = 0.596	–	1037.96	985.9	–
[1], 313.15 K, x2 = 0.6036	–	–	–	0.5356
[1], 313.15 K, x2 = 0.7004	–	–	–	0.4916
[1], 313.15 K, x2 = 0.7191	–	983.05	1045.5	–
[1], 313.15 K, x2 = 0.7922	–	952.13	1082.8	–
[1], 313.15 K, x2 = 0.8532	–	–	–	0.4431
[1], 313.15 K, x2 = 0.8937	–	909.37	1138.7	–
[1], 313.15 K, x2 = 0.9033	–	–	–	0.4239
[2], 283.15 K, x2 = 0.053	-0.0915	–	–	–
[2], 283.15 K, x2 = 0.107	-0.173	–	–	–
[2], 283.15 K, x2 = 0.212	-0.295	–	–	–
[2], 283.15 K, x2 = 0.316	-0.381	–	–	–
[2], 283.15 K, x2 = 0.417	-0.415	–	–	–
[2], 283.15 K, x2 = 0.517	-0.413	–	–	–
[2], 283.15 K, x2 = 0.618	-0.375	–	–	–
[2], 283.15 K, x2 = 0.717	-0.304	–	–	–
[2], 283.15 K, x2 = 0.81	-0.216	–	–	–
[2], 283.15 K, x2 = 0.908	-0.107	–	–	–
[2], 283.15 K, x2 = 0.954	-0.0509	–	–	–
[2], 298.15 K, x2 = 0.053	-0.113	–	–	–
[2], 298.15 K, x2 = 0.107	-0.224	–	–	–
[2], 298.15 K, x2 = 0.212	-0.369	–	–	–
[2], 298.15 K, x2 = 0.316	-0.45	–	–	–
[2], 298.15 K, x2 = 0.417	-0.479	–	–	–
[2], 298.15 K, x2 = 0.517	-0.467	–	–	–
[2], 298.15 K, x2 = 0.618	-0.418	–	–	–
[2], 298.15 K, x2 = 0.717	-0.341	–	–	–
[2], 298.15 K, x2 = 0.81	-0.237	–	–	–
[2], 298.15 K, x2 = 0.908	-0.117	–	–	–
[2], 298.15 K, x2 = 0.954	-0.0559	–	–	–
[2], 313.15 K, x2 = 0.053	-0.113	–	–	–
[2], 313.15 K, x2 = 0.107	-0.222	–	–	–
[2], 313.15 K, x2 = 0.212	-0.375	–	–	–
[2], 313.15 K, x2 = 0.316	-0.474	–	–	–
[2], 313.15 K, x2 = 0.417	-0.512	–	–	–
[2], 313.15 K, x2 = 0.517	-0.5	–	–	–
[2], 313.15 K, x2 = 0.618	-0.447	–	–	–
[2], 313.15 K, x2 = 0.717	-0.361	–	–	–
[2], 313.15 K, x2 = 0.81	-0.254	–	–	–
[2], 313.15 K, x2 = 0.908	-0.125	–	–	–
[2], 313.15 K, x2 = 0.954	-0.0614	–	–	–

— the NIST ThermoML archive (doi:10.1021/je034076x)
